Results from ChEMBL document CHEMBL1154763, “Antitrypanosomal activity of 1,2-dihydroquinolin-6-ols and their ester derivatives” (J Med Chem, 2010).
Activity calls are given as the source filed them. The rule behind the calls is not given here.

Experiments:
[1] = system: Trypanosoma brucei rhodesiense; assay: Antitrypanosomal activity against bloodstream Trypanosoma brucei rhodesiense STIB 900 after 70 hrs by alamar blue assay; format: functional, organism-based; settings: STIB 900, 70 h
[2] = Selectivity index, ratio of IC50 for rat L6 cells to IC50 for bloodstream Trypanosoma brucei rhodesiense STIB 900; format: toxicity, cell-based; settings: read-out: Ratio IC50
[3] = system: L6; assay: Cytotoxicity against rat L6 cells after 70 hrs by alamar blue assay; format: cell-based; settings: L6, 70 h
[4] = system: Trypanosoma brucei brucei; assay: Induction of reactive oxygen species generation in Trypanosoma brucei brucei MITat1,2,variant 221 at 0.1 uM preincubated for 24 hrs by CM-H2DCFDA fluorescence assay
[5] = system: Trypanosoma brucei brucei; assay: Induction of reactive oxygen species generation in Trypanosoma brucei brucei MITat1,2,variant 221 at 10 uM preincubated for 24 hrs by CM-H2DCFDA fluorescence assay
[6] = system: Trypanosoma brucei brucei; assay: Induction of reactive oxygen species generation in Trypanosoma brucei brucei MITat1,2,variant 221 at 1 uM preincubated for 24 hrs by CM-H2DCFDA fluorescence assay
[7] = system: Mus musculus; assay: Toxicity in Trypanosoma brucei STIB795 infected in NMRI mouse African trypanosomiasis model assessed as overt signs of at 50 mg/kg, ip qd administered for 4 consecutive days from day 3 to 6 postinfection measured up to 30 days; settings: in vivo, 720 h
[8] = system: Trypanosoma brucei brucei; assay: Antitrypanosomal activity against Trypanosoma brucei brucei STIB 795 infected in NMRI mouse African trypanosomiasis model assessed as parasite free mouse survival at 50 mg/kg, ip qd administered for 4 consecutive days from day 3 to 6 postinfection measured up to 30 days
[9] = system: Trypanosoma brucei brucei; assay: Antitrypanosomal activity against Trypanosoma brucei brucei STIB 795 infected in NMRI mouse African trypanosomiasis model assessed as parasite free mouse survival at 10 mg/kg, ip qd administered for 4 consecutive days from day 3 to 6 postinfection measured up to 30 days; settings: STIB795
[10] = system: Trypanosoma brucei brucei; assay: Induction of reactive oxygen species generation in Trypanosoma brucei brucei MITat1,2,variant 221 preincubated for 24 hrs by CM-H2DCFDA fluorescence assay

| Structure (SMILES) | IC50 [1] [µM] | selectivity ratio [2] | IC50 ([3]; read-out: IC50) [µM] | other results |
| --- | --- | --- | --- | --- |
| COc1cccc(COc2ccc3c(c2)C(C)=CC(C)(C)N3)c1 | 11 | 5 | 61 | – |
| COc1cccc(COc2ccc3c(c2)C(C)=CC(C)(C)N3Cc2cccc(OC)c2)c1 | 63 | > 3 | > 210 | – |
| CC1=CC(C)(C)N(Cc2ccncc2)c2ccc(O)cc21 | 0.34 | 39 | 13 | – |
| CC(=O)Oc1ccc2c(c1)C(C)=CC(C)(C)N2Cc1cccc(C)c1 | 0.34 | 82 | 28 | – |
| CC1=CC(C)(C)N(Cc2ccccc2)c2ccc(OC(=O)c3ccccc3)cc21 | 0.013 | > 18000 | > 240 | – |
| CC1=CC(C)(C)Nc2ccc(O)cc21 | 0.78 | 23 | 18 | – |
| CC1=CC(C)(C)N(Cc2ccccc2)c2ccc(OC(=O)Cc3ccccc3)cc21 | 0.015 | 11000 | 160 | – |
| CC(=O)Oc1ccc2c(c1)C(C)=CC(C)(C)N2Cc1cccc(Cl)c1 | 0.039 | 740 | 29 | – |
| CC(=O)Oc1ccc2c(c1)C(C)=CC(C)(C)N2C | 1.4 | 29 | 41 | – |
| CCCCCCCC(=O)Oc1ccc2c(c1)C(C)=CC(C)(C)N2Cc1ccccc1 | 0.017 | 13000 | 220 | – |
| CC(=O)Oc1ccc2c(c1)C(C)=CC(C)(C)N2Cc1cccc(C(F)(F)F)c1 | 0.041 | 660 | 27 | – |
| CC1=CC(C)(C)Nc2ccc(OCc3ccccc3)cc21 | 4.1 | 14 | 56 | – |
| CC1=CC(C)(C)N(Cc2ccccc2)c2ccc(OC(=O)C(C)(C)C)cc21 | 0.028 | 6000 | 170 | – |
| COc1ccc(CN2c3ccc(OC(C)=O)cc3C(C)=CC2(C)C)cc1 | 0.048 | 310 | 15 | – |
| COc1cc(OC)cc(C(=O)Oc2ccc3c(c2)C(C)=CC(C)(C)N3Cc2ccc(C)cc2)c1 | 0.033 | > 6000 | > 200 | – |
| CC1(C)C=Cc2cc(O)ccc2N1Cc1ccccc1 | 0.13 | 42 | 5.5 | – |
| CC(=O)Oc1ccc2c(c1)C(C)=CC(C)(C)N2Cc1ccc(Cl)c(Cl)c1 | 0.053 | 530 | 28 | – |
| CC(=O)Oc1ccc2c(c1)C(C)=CC(C)(C)N2Cc1ccc(Cl)cc1 | 0.18 | 120 | 22 | – |
| CC1=CC(C)(C)Nc2ccc(OCCc3ccccc3)cc21 | 3.7 | 22 | 83 | – |

| Structure (SMILES) | IC50 [1] [µM] | selectivity ratio [2] | IC50 ([3]; read-out: IC50) [µM] | other results |
| --- | --- | --- | --- | --- |
| CC(=O)Oc1ccc2c(c1)C(C)=CC(C)(C)N2Cc1ccc(C(F)(F)F)cc1 | 0.36 | 39 | 14 | – |
| CC(=O)Oc1ccc2c(c1)C(C)=CC(C)(C)N2Cc1ccc(C#N)cc1 | 0.26 | 110 | 29 | – |
| CC1=CC(C)(C)N(Cc2ccccc2)c2ccccc21 | 57 | 2 | 110 | Activity [4]: inactive; Activity [5]: inactive; Activity [6]: inactive |
| COc1ccc(CN2c3ccc(O)cc3C(C)=CC2(C)C)cc1 | 0.17 | 37 | 6.2 | – |
| COc1cc(CN2c3ccc(OC(C)=O)cc3C(C)=CC2(C)C)cc(OC)c1 | 0.1 | 240 | 25 | – |
| CC1=CC(C)(C)Nc2ccc(OCc3ccc(C(F)(F)F)cc3)cc21 | 4.5 | 11 | 48 | – |
| CC1=CC(C)(C)N(Cc2ccccc2)c2ccc(O)cc21 | 0.007 | 970 | 6.8 | – |
| CC(=O)Oc1ccc2c(c1)C(C)=CC(C)(C)N2Cc1ccc(F)cc1 | 0.041 | 710 | 29 | Activity [7]: Non-toxic; Survival ([8]; route intraperitoneal): 8.75 days |
| N=C(N)c1ccc(/N=N/Nc2ccc(C(=N)N)cc2)cc1 | – | – | – | Activity [9]: Active |
| CC1=CC(C)(C)N(Cc2ccccc2)c2ccc(OC(=O)C3CCCCC3)cc21 | 0.028 | > 8200 | > 230 | – |
| CC(=O)Oc1ccc2c(c1)C(C)=CC(C)(C)N2C(C)=O | 5.3 | 29 | 160 | – |
| COc1cc(OC)cc(C(=O)Oc2ccc3ncccc3c2)c1 | 89 | 2 | 200 | – |
| COc1cc(COc2ccc3c(c2)C(C)=CC(C)(C)N3)cc(OC)c1 | 13 | 5 | 68 | – |
| COc1ccccc1COc1ccc2c(c1)C(C)=CC(C)(C)N2 | 5.3 | 9 | 48 | – |
| CC(=O)Oc1ccc2c(c1)C(C)=CC(C)(C)N2Cc1ccccc1 | 0.014 | 1700 | 24 | Activity [7]: Non-toxic; Activity [10]: Dose-dependent effect; Survival ([8]; route intraperitoneal): >14 days |
| COc1cc(OC)cc(C(=O)Oc2ccc3c(c2)C(C)=CC(C)(C)N3Cc2ccc(Cl)cc2)c1 | 0.048 | > 3900 | > 190 | – |
| CC1=CC(C)(C)N(Cc2cccc(C(F)(F)F)c2)c2ccc(OCc3cccc(C(F)(F)F)c3)cc21 | 3.6 | > 50 | > 180 | – |
| CC1=CC(C)(C)Nc2ccc(OC(=O)c3cccc(C(=O)Oc4ccc5c(c4)C(C)=CC(C)(C)N5)c3)cc21 | < 0.008 | > 7800 | 63 | – |
| CC1=CC(C)(C)N(Cc2ccc(Cl)cc2)c2ccc(O)cc21 | 0.061 | 130 | 7.9 | – |

| Structure (SMILES) | IC50 [1] [µM] | selectivity ratio [2] | IC50 ([3]; read-out: IC50) [µM] | other results |
| --- | --- | --- | --- | --- |
| COc1ccc(COc2ccc3c(c2)C(C)=CC(C)(C)N3)cc1 | 5.2 | 15 | 77 | – |
| CC(=O)Oc1ccc2c(c1)C(C)=CC(C)(C)N2Cc1ccc(C(C)(C)C)cc1 | 0.67 | 13 | 9 | – |
| COc1cc([C@@H]2c3cc4c(cc3[C@H](O)[C@H]3COC(=O)[C@H]23)OCO4)cc(OC)c1OC [PODOFILOX] | – | – | – | IC50 [3]: 0.012 µM |
| CC(=O)Oc1ccc2c(c1)N(Cc1ccccc1)C(C)(C)C=C2C | 4.4 | 16 | 71 | Activity [4]: inactive; Activity [5]: inactive; Activity [6]: inactive |
| COc1cc(OC)cc(C(=O)Oc2ccc3c(c2)C(C)=CC(C)(C)N3Cc2ccccc2)c1 | 0.023 | 1000 | 24 | – |
| CC(=O)Oc1ccc2c(c1)C(C)=CC(C)(C)N2Cc1cccc(C#N)c1 | 0.18 | 170 | 31 | Activity [7]: Non-toxic; Survival ([8]; route intraperitoneal): 9.25 days |
| COc1cc(CN2c3ccc(OC(C)=O)cc3C=CC2(C)C)cc(OC)c1 | 0.2 | 50 | 10 | – |
| CC1=CC(C)(C)Nc2ccc(OCc3cccc(C(F)(F)F)c3)cc21 | 8.8 | 5 | 45 | – |
| CC(=O)Oc1ccc2c(c1)C(C)=CC(C)(C)N2Cc1ccc(C)cc1 | 0.39 | 54 | 21 | – |
| COc1cccc(CN2c3ccc(OC(C)=O)cc3C(C)=CC2(C)C)c1 | 0.32 | 91 | 29 | – |
| CC1=CC(C)(C)N(Cc2ccccn2)c2ccc(O)cc21 | 1.1 | 17 | 18 | – |
| CC1=CC(C)(C)N(Cc2ccc(C(F)(F)F)cc2)c2ccc(OCc3ccc(C(F)(F)F)cc3)cc21 | 86 | > 2 | > 180 | – |
| COc1cc(OC)cc(C(=O)Oc2ccc3c(c2)C(C)=CC(C)(C)N3)c1 | 0.054 | 300 | 16 | Survival [8]: inactive |
| Nc1nc(N)nc(Nc2ccc([As]3SCC(CO)S3)cc2)n1 (stereo not drawn) [MELARSOPROL] | 0.008 | 1000 | 7.9 | – |
| CC1=CC(C)(C)Nc2ccc(OC(=O)c3ccc4c(c3)OCO4)cc21 | 0.3 | 99 | 29 | – |
| COc1cc(CN2c3ccc(O)cc3C(C)=CC2(C)C)cc(OC)c1 | 0.14 | 83 | 11 | – |
| CC1=CC(C)(C)N(Cc2ccc(C)cc2)c2ccc(O)cc21 | 0.058 | 140 | 8.1 | – |
| O=C(Oc1ccc2ncccc2c1)c1ccc2c(c1)OCO2 | 80 | 0.5 | 40 | – |
